Where a name gives a salt, the structure may show the parent alone.
Biological target: recombinant human PARP (Homo sapiens, UniProt P09874)
Experiment: PARP inhibitory activity (In vitro assay)
Type: biochemical
Settings: 32P-NAD, 0.05 mM NAD, activated DNA, pH8.0, 15 minutes at room temperature
Method: PARP inhibitory activity (In vitro assay)
The recombinant human PARP (5.3 mg protein/ml) was incubated with a test compound in a 100 μl reaction buffer containing an indicated concentration of 1 mCi/ml ^32P-NAD, 50 mM Tris-HCl, 25 mM MgCl2, 1 mM DTT (dithiothreitol), 0.05 mM NAD (nicotinamide adenine dinucleotide) and 1 mg/ml activated DNA, pH8.0. Incubation was carried out for 15 minutes at a room temperature, and the reaction was stopped by addition of 200 μl of ice-cold 20% tricholoroacetic acid followed by rapid filtration through GF/B filters. The […] was treated with scintillation fluid and acid-insoluble counts were measured for quantification of unit activity. PARP inhibitory activity was calculated by using the following formula: PARP inhibitory activity (%)=[1-(count obtained with test compound)/(count obtained with vehicle only)]×100

Sequence of recombinant human PARP (P09874 whole entry): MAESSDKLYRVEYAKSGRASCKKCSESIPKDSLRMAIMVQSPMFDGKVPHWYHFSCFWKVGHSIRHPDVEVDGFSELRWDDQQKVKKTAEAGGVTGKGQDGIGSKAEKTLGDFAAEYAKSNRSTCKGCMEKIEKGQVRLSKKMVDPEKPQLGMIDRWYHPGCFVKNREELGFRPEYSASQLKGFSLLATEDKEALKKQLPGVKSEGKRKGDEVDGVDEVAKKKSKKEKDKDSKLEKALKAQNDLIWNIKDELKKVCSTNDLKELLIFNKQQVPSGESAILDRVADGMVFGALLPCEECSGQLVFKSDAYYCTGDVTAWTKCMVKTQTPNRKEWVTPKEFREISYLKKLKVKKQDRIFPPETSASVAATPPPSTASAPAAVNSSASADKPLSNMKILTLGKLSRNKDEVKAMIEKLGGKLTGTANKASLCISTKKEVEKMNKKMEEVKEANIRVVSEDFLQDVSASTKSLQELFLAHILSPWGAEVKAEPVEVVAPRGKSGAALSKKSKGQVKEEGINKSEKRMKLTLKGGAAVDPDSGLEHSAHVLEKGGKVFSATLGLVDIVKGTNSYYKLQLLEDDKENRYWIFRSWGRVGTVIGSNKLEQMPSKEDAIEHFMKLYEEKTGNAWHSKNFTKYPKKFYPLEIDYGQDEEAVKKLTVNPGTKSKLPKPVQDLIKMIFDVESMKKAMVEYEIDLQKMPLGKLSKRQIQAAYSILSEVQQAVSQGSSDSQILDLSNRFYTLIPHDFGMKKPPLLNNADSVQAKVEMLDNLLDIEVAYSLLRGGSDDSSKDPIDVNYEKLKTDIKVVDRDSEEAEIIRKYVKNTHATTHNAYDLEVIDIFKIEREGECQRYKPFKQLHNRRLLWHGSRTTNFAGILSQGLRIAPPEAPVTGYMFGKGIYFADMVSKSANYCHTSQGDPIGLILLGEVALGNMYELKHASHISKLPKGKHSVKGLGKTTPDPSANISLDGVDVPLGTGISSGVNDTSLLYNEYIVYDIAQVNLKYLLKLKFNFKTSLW

SMILES | IC50 [µM]
O=c1[nH]c2ccc(CCCN3CC=C(c4ccc(F)cc4)CC3)cc2c2ccccc12 [Example 2, 2-{3-[4-(4-fluorophenyl)-3,6-dihydro-1 (2H)-pyridyl]propyl}-6(5H)-phenanthridinone] | < 0.1
O=c1[nH]c2cc(CN3CCC(O)(c4ccccc4)CC3)ccc2c2c1CCCC2 [Example 35, 3-[(4-hydroxy-4-phenyl-1-piperidyl)methyl]-7,8,9,10-tetrahydro-6(5H)-phenanthridinone hydrochloride] | < 0.1
O=c1[nH]c2c(Oc3ccccn3)cccc2c2c1CCCC2 [Example 42] | < 0.1
O=c1[nH]c2cc(CN3CC=C(c4ccc(Cl)cc4)CC3)ccc2c2c1CCCC2 [Example 15, 3-{[4-(4-Chlorophenyl)-3,6-dihydro-1(2H)-pyridyl]methyl}-7,8,9,10-tetrahydro-6(5H)-phenanthridinone] | < 0.1

Continued, values first:

IC50 [µM] | SMILES
< 0.1 | Cc1ccc(C2CCN(Cc3ccc4c5c(c(=O)[nH]c4c3)CCCC5)CC2)cc1 [Example 30, 3-{[4-(4-methylphenyl)-1-piperidyl]methyl}-7,8,9,10-tetrahydro-6(5H)-phenanthridinone hydrochloride]
< 0.1 | O=c1[nH]c2cc(CN3CCCCC3)ccc2c2ccccc12 [Example 60, 3-(1-piperidylmethyl)-6(5H)-phenanthridinone]
< 0.1 | Cc1ccc(C2CCN(Cc3ccc4c(c3)[nH]c(=O)c3ccccc34)CC2)nc1 [Example 63, 3-{[4-(5-methyl-2-pyridyl)-1-piperidyl]methyl}-6(5H)-phenanthridinone]
< 0.1 | O=c1[nH]c2cc(CN3CCN(c4ccc(Cl)cn4)CC3)ccc2c2ccccc12 [Example 52, 3-{[4-(5-chloro-2-pyridyl)-1-piperazinyl]methyl}-6(5H)-phenanthridinone dihydrochloride]

From patent US20050171101A1 (Fujisawa Pharmaceutical Co. Ltd., priority 2002, published 2005)
